The target in the assay is T1, Pantothenate synthetase (Mycobacterium tuberculosis, UniProt P9WIL5).
T1 sequence (P9WIL5 whole entry): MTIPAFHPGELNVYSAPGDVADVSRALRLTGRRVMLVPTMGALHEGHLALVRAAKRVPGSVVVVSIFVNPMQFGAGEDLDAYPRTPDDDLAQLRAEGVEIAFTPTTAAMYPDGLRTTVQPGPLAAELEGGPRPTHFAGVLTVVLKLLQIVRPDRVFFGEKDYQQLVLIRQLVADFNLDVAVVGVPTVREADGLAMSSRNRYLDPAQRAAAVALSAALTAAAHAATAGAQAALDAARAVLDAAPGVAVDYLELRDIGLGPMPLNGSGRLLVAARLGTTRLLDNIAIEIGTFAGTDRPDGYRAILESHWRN
Nature of the assay: Inhibition of Mycobacterium tuberculosis pantothenate synthetase expressed in Escherichia coli.

For orientation: IC50 means the concentration that inhibits the measured activity by half. `COc1ccc2c(c1)cc(C(=O)NS(=O)(=O)Cc1ccc(C(F)(F)F)cc1)n2CC(=O)O` displayed a 50% inhibitory concentration (IC50) of 250 nM.

The record behind these values is ChEMBL document CHEMBL3817781, “Identifying Interactions that Determine Fragment Binding at Protein Hotspots” (J Med Chem, 2016).
